Structures are written as SMILES. Counter-ions that a name gives are not always drawn.

Bek, sequence (P21802 431-767 limits assumed): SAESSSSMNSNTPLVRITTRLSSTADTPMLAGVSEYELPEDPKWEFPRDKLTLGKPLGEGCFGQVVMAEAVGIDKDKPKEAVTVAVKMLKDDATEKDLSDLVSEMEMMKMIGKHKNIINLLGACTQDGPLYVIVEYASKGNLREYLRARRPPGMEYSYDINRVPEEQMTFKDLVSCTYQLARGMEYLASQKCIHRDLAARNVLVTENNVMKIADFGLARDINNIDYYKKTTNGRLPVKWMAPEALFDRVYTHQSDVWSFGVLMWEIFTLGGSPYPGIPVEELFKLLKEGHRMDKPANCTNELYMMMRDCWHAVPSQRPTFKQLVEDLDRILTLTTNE

The target in this experiment is Bek (Homo sapiens, UniProt P21802). As to the kind of experiment: Inhibitory activity against Bek-autophosphorylation using ELISA method in OCUM-2MD3 cells. The format is cell-based. The following applies: 1 hr with compound, read-out: IC50 (concentration necessary for inhibiting 50% of Bek-phosphorylation). Put shortly:
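Sandwich ELISA (anti-phosphotyrosine capture, anti-Bek detection, peroxidase, 450 nm) measured Bek autophosphorylation in OCUM-2MD3 lysates after 1 hr compound treatment at 37° C in 0.1% serum medium. IC50 derived by scaling between no-drug (100%) and excess positive control at 1000 nM (0%).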
As for `COc1cc2c(Oc3ccc(NC(=O)NCCC(C)(C)C)cc3)ccnc2cc1OCCCN1CCC(O)CC1` [Compound 96, 1-(3,3-Dimethyl-butyl)-3-(4-{7-[3-(4-hydroxy-piperidin-1-yl)-propoxy]-6-methoxy-quinolin-4-yloxy}-phenyl)-urea], the IC50 was under 10 nM. The figure for `COc1cc2c(Oc3ccc(NC(=O)NCCC(C)(C)C)cc3)ccnc2cc1OCCCN1CCOCC1` [Compound 155, 1-(3,3-Dimethyl-butyl)-3-{4-[6-methoxy-7-(3-morpholin-4-yl-propoxy)-quinolin-4-yloxy]-phenyl}-urea hydrochloride] is 28.7 nM. In the case of `COc1cc2c(Oc3ccc(NC(=O)NCCC(C)(C)C)c(Cl)c3)ccnc2cc1OCCN(CCO)CCO` [Compound 176, 1-[4-(7-{2-[Bis-(2-hydroxy-ethyl)-amino]-ethoxy}-6-methoxy-quinolin-4-yloxy)-2-chloro-phenyl]-3-(3,3-dimethyl-butyl)-urea], the IC50 is under 10 nM. Turning to `COc1cc2c(Oc3ccc(NC(=O)NCCC(C)(C)C)cc3)ccnc2cc1OCCN1CCC(Cc2ccccc2)CC1` [Compound 122, 1-(4-{7-[2-(4-Benzyl-piperidin-1-yl)-ethoxy]-6-methoxy-quinolin-4-yloxy}-phenyl)-3-(3,3-dimethyl-butyl)-urea], the IC50 came out at 151 nM. Take `COc1cc2c(Oc3ccc(Nc4ccc(C(C)(C)C)cc4)cc3)ccnc2cc1OCc1csc(C)n1` [Compound 28, (4-Tert-butylphenyl)-{4-[6-methoxy-7-(2-methylthiazol-4-ylmethoxy)quinolin-4-yloxy]phenyl}amine]: the IC50 was 2400 nM. For the compound `COc1cc2c(Oc3ccc(NC(=O)NCCC(C)(C)C)cc3F)ccnc2cc1OCCCN1CC(C)OC(C)C1` (stereo not shown) [Compound 327, 1-(3,3-Dimethyl-butyl)-3-(4-{7-[3-(2,6-dimethyl-morpholin-4-yl)-propoxy]-6-methoxy-quinolin-4-yloxy}-3-fluoro-phenyl)-urea], the IC50 is 20.6 nM. Regarding `COc1cc2c(Oc3ccc(NC(=O)NCCC(C)(C)C)cc3)ccnc2cc1OCCN1CCOCC1` [Compound 112, 1-(3,3-Dimethyl-butyl)-3-{4-[6-methoxy-7-(2-morpholin-4-yl-ethoxy)-quinolin-4-yloxy]-phenyl}-urea hydrochloride], the IC50 is 52.1 nM. The figure for `COc1cc2c(Oc3ccc(NC(=O)NCCC(C)(C)C)c(Cl)c3)ccnc2cc1OCCCN1CCCC1` [Compound 179, 1-{2-Chloro-4-[6-methoxy-7-(3-pyrrolidin-1-yl-propoxy)-quinolin-4-yloxy]-phenyl}-3-(3,3-dimethyl-butyl)-urea] is 17.3 nM; for `COc1cc2c(Oc3ccc(NC(=O)NCCC(C)(C)C)c(F)c3)ccnc2cc1OCCN1CCC(CO)CC1` [Compound 300, 1-(3,3-Dimethyl-butyl)-3-(2-fluoro-4-{7-[2-(4-hydroxymethyl-piperidin-1-yl)-ethoxy]-6-methoxy-quinolin-4-yloxy}-phenyl)-urea] it is 22.7 nM. As for `COc1cc2nccc(Oc3ccc(Nc4ccc(C(C)(C)C)cc4)c(C)c3C)c2cc1OC` [Compound 16, (4-Tert-butylphenyl)-[4-(6,7-dimethoxyquinolin-4-yloxy)-2,3-dimethylphenyl]amine], the IC50 came to 242 nM. Consider `COc1cc2c(Oc3ccc(Nc4ccc(C(C)(C)C)cc4)cc3F)ccnc2cc1OCCN1CCC(CO)CC1` [Compound 283, [1-(2-{4-[4-(4-Tert-butyl-phenylamino)-2-fluoro-phenoxy]-6-methoxy-quinolin-7-yloxy}-ethyl)-piperidin-4-yl]-methanol], for which the IC50 came out at 167 nM. Take `COc1cc2c(Oc3ccc(NC(=O)NCCC(C)(C)C)c(Cl)c3)ccnc2cc1OCCN1CCC(CO)CC1` [Compound 275, 1-(2-Chloro-4-{7-[2-(4-hydroxymethyl-piperidin-1-yl)-ethoxy]-6-methoxy-quinolin-4-yloxy}-phenyl)-3-(3,3-dimethyl-butyl)-urea]: the IC50 is 31.6 nM. Turning to `COc1cc2nccc(Oc3ccc(NC(=O)NCCC(C)(C)C)cc3)c2cc1OCCCN1CCC(CO)CC1` [Compound 323, 1-(3,3-Dimethyl-butyl)-3-(4-{6-[3-(4-hydroxymethyl-piperidin-1-yl)-propoxy]-7-methoxy-quinolin-4-yloxy}-phenyl)-urea], the IC50 came to 373 nM. As for `COc1cc2c(Oc3ccc(Nc4ccc(C(C)(C)C)cc4)cc3)ccnc2cc1OCCCCN1CCN(C)CC1` [Compound 29, (4-Tert-butylphenyl)-(4-{6-methoxy-7-[4-(4-methylpiperazin-1-yl)butoxy]quinolin-4-yloxy}phenyl)amine], the IC50 was found to be 931 nM.

With `COc1cc2c(Oc3ccc(NC(=O)NCCC(C)(C)C)c(F)c3)ccnc2cc1OCCCN1CCC(CO)CC1` [Compound 303, 1-(3,3-Dimethyl-butyl)-3-(2-fluoro-4-{7-[3-(4-hydroxymethyl-piperidin-1-yl)-propoxy]-6-methoxy-quinolin-4-yloxy}-phenyl)-urea], the IC50 was found to be 22 nM. Regarding `COc1cc2c(Oc3ccc(Nc4ccc(C(C)(C)C)cc4)cc3Cl)ccnc2cc1OCCN1CCC(CO)CC1` [Compound 308, [1-(2-{4-[4-(4-Tert-butyl-phenylamino)-2-chloro-phenoxy]-6-methoxy-quinolin-7-yloxy}-ethyl)-piperidin-4-yl]-methanol], the IC50 worked out at 204 nM. Regarding `COc1cc2c(Oc3ccc(NC(=O)NCCC(C)(C)C)c(Cl)c3)ccnc2cc1OCCCN1CCCCC1` [Compound 180, 1-{2-Chloro-4-[6-methoxy-7-(3-piperidin-1-yl-propoxy)-quinolin-4-yloxy]-phenyl}-3-(3,3-dimethyl-butyl)-urea], the IC50 amounted to 22.7 nM.

`COc1cc2c(Oc3ccc(Nc4ccc(C(C)(C)C)cc4)cc3)ccnc2cc1OCC(O)CN1CCCC1` (stereo not shown) [Compound 61, 1-{4-[4-(4-Tert-butyl-phenylamino)phenoxy]-6-methoxyquinolin-7-yloxy}-3-pyrrolidin-1-ylpropan-2-ol]: the IC50 was determined as 187 nM. Regarding `COc1cc2c(Oc3ccc(Nc4ccc(C(C)(C)C)cc4)cc3)ccnc2cc1OCCCN(C)C` [Compound 46, N1-[4-(Tert-butyl)phenyl]-4-({7-[3-(dimethylamino)propoxy]-6-methoxy-4-quinolyl}oxy)aniline], the IC50 amounted to 230 nM. On to `COc1cc2nccc(Oc3ccc(NC(=O)NCCC(C)(C)C)cc3)c2cc1OCCCN1CCOCC1` [Compound 223, 1-(3,3-Dimethyl-butyl)-3-{4-[7-methoxy-6-(3-morpholin-4-yl-propoxy)-quinolin-4-yloxy]-phenyl}-urea], for which the IC50 was found to be 49.8 nM.

`COc1cc(Oc2ccnc3cc(OC)c(OC)cc23)ccc1NC(=O)NCCC(C)(C)C` [Compound 138, 1-[4-(6,7-Dimethoxy-quinolin-4-yloxy)-2-methoxy-phenyl]-3-(3,3-dimethyl-butyl)-urea]: the IC50 stood at 317 nM. Take `COc1cc2c(Oc3ccc(NC(=O)NCCC(C)(C)C)cc3)ccnc2cc1OCCNC1(CO)CCCC1` [Compound 359, 1-(3,3-Dimethyl-butyl)-3-(4-{7-[2-(1-hydroxymethyl-cyclopenthylamino)-ethoxy]-6-methoxy-quinolin-4-yloxy}-phenyl)-urea]: the IC50 worked out at 254 nM. For the compound `COc1cc2c(Oc3ccc(NC(=O)NCCC(C)(C)C)c(F)c3)ccnc2cc1OCCCN(C)CCO` [Compound 333, 1-(3,3-Dimethyl-butyl)-3-[2-fluoro-4-(7-{3-[(2-hydroxy-ethyl)-methyl-amino]-propoxy}-6-methoxy-quinolin-4-yloxy)-phenyl]-urea], the IC50 came to 9.4 nM.

Turning to `COc1cc2c(Oc3ccc(NC(=O)NCCC(C)(C)C)c(Cl)c3)ccnc2cc1OCCO` [Compound 211, 1-{2-Chloro-4-[7-(2-hydroxy-ethoxy)-6-methoxy-quinolin-4-yloxy]-phenyl}-3-(3,3-dimethyl-butyl)-urea], the IC50 is under 10 nM. The figure for `COc1cc2c(Oc3ccc(NC(=O)NCCC(C)(C)C)c(Cl)c3)ccnc2cc1OCCCCN` [Compound 175, 1-{4-[7-(4-Amino-butoxy)-6-methoxy-quinolin-4-yloxy]-2-chloro-phenyl}-3-(3,3-dimethyl-butyl)-urea] is 21.7 nM; for `COc1cc2nccc(Oc3ccc(Nc4ccc(C(C)(C)C)cc4)cc3)c2cc1OCCN1CCC(CO)CC1` [Compound 355, [1-(2-{4-[4-(4-Tert-butyl-phenylamino)-phenoxy]-7-methoxy-quinolin-6-yloxy}-ethyl)-piperidin-4-yl]-methanol] it is 403 nM; for `COc1cc2c(Oc3ccc(NC(=O)NCCC(C)(C)C)cc3)ccnc2cc1OCCCCCl` [Compound 153, 1-{4-[7-(4-Chloro-butoxy)-6-methoxy-quinolin-4-yloxy]-phenyl}-3-(3,3-dimethyl-butyl)-urea] it is 241 nM. `COc1cc2c(Oc3ccc(NC(=O)NCCC(C)(C)C)c(Cl)c3)ccnc2cc1OCCCCN1CCOCC1` [Compound 320, 1-{2-Chloro-4-[6-methoxy-7-(4-morpholin-4-yl-butoxy)-quinolin-4-yloxy]-phenyl}-3-(3,3-dimethyl-butyl)-urea]: the IC50 came to 21.4 nM. `COc1cc2c(Oc3ccc(NC(=O)NCCC(C)(C)C)cc3)ccnc2cc1OCCN(CCO)C1CCCCC1` [Compound 362, 1-[4-(7-{2-[Cyclohexyl-(2-hydroxy-ethyl)-amino]-ethoxy}-6-methoxy-quinolin-4-yloxy)-phenyl]-3-(3,3-dimethyl-butyl)-urea]: the IC50 is 49.2 nM. The figure for `COc1cc2nccc(Oc3ccc(Nc4ccc(C(C)C)cc4)cc3)c2cc1OC` [Compound 9, [4-(6,7-Dimethoxyquinolin-4-yloxy)phenyl]-(4-isopropylphenyl)-amine] is 313 nM; for `COc1cc2c(Oc3ccc(NC(=O)NCCC(C)(C)C)cc3)ccnc2cc1OCCCCN1CCN(C)CC1` [Compound 159, 1-(3,3-Dimethyl-butyl)-3-(4-{6-methoxy-7-[4-(4-methyl-piperazin-1-yl)-butoxy]-quinolin-4-yloxy}-phenyl)-urea hydrochloride] it is 26.2 nM.

Values taken from patent US7495104B2, “Quinoline or quinazoline derivatives inhibiting auto-phosphorylation of fibroblast growth factor receptors” (Kirin Beer Kabushiki Kaisha, priority 2001, dated 2009).
